# Test results from patent US20110166079A1, “METHODS OF TREATING CANCER WITH APOE PEPTIDES” (COGNOSCI, INC., priority 2008, published 2011).
# Assays:
# B-CLL cells = assay: Cytotoxicity on B-CLL cells from CLL patients (MTS assay)
# Procedure: To determine whether COG peptides could counteract the overactivation of the Akt/NFkB pathway in B-CLL cells and effectively induce apoptosis, cytotoxicity testing was performed on freshly isolated B-CLL cells from CLL patients with COG peptides. Blood from CLL patients was collected and CD5+/CD19+ CLL cells were isolated using the RosetteSep™ Human B Cell Enrichment Cocktail. This method depletes whole blood of T cells, monocytes, and NK cells using a proprietary antibody cocktail containing anti-CD14, anti-CD2 and anti-CD16 antibodies to remove T cells, monocytes, and NK cells, respectively. The antibody cocktail crosslinks unwanted cells in human whole blood to multiple red blood cells forming immunorosettes thereby increasing the density of the rosetted cells, such that they pellet along with the free RBCs when centrifuged over a buoyant density medium such as Ficoll-Paque®. The highly enriched B-cell or B-CLL cells are left at the interface between Ficoll and the plasma.
# COG peptides were applied to the isolated B-CLL cells (0.25×10^6 cells/well in a 96 well plate) for 72 hours, after which viable cells were assessed using the MTS assay ([…]).
# Additional B-CLL cells and peripheral blood mononuclear cells (PBMC; i.e., normal B cells) were isolated from leukemia patients and normal volunteers, respectively, and were treated with a range of COG112 concentrations.
# [1] = Cytotoxicity on PBMC from normal volunteers; type: cell-based; conditions: human, FIG. 4
# Jurkat T-cells = assay: Growth of Jurkat T-cell leukemia cells; type: cell-based, human; conditions: 1 μM COG112, FIG. 9
# Procedure: To determine whether ApoE peptides could be therapeutic for T-cell leukemia, the effect of COG112 on the growth rate of Jurkat T-cells, a human acute T-cell leukemia cell line, was assessed. Jurkat T-cells (2×10^4 cells per well in a 6 well plate) were grown in 2 mL of media in the absence or presence of 1 μM COG112 added upon plating the cells. Cell growth was measured using a hemacytometer following daily removal of a small aliquot for counting.
# ERK, Akt, IκK and NFκB = assay: Immunoblotting of phospho- and total ERK, Akt, IκK and NFκB in B-CLL cells; type: cell-based, human; conditions: 2 μM COG112, 3 hours, relative to untreated cells
# Excerpt: The results of the two previous series of experiments indicate that SET overexpression in CLL cells results in decreased PP2A activity which contributes to the persistence of an anti-apoptotic state in these cells. COG peptides, such as COG112, can induce apoptosis in CLL cells, which may occur through the binding of COG peptides to the SET protein, thereby relieving the suppression of PP2A activity. To further elucidate the mechanism of the cytotoxic effect of COG peptides on CLL cells, the effect of COG112 treatment on the phosphorylation state of key signal transduction proteins and PP2A activity in B-CLL cells is evaluated. […]
# Immunoblotting is performed on the extracts from COG112 treated and untreated CLL cells to determine the relative levels of phospho-and total-(phosphorylated plus non-phosphorylated) ERK, Akt, IκK and NFκB. Specifically, cell extracts obtained by the method above will be analyzed to determine the protein concentration of each lysate using the BCA assay kit (Pierce). […] Protein bands are visualized and quantitated using an Odyssey Infrared scanner (LiCor). This method allows for simultaneous quantitation of the phospho-Akt using the emission of the 800 nm channel and of the total Akt using the emission of the 680 nm channel. Following the initial read, a rabbit anti-β-Actin antibody is incubated with the membrane for 1 hour and the membrane is washed. […]
substance,measurement,setting,value
Ac-RQIKIWFQNRRMKWKKCLRVRLASHLRKLRKRLL-NH2 (N-terminus and C-terminus assumed) [COG112],Fold Change,B-CLL cells; EC50 relative to COG056 control,58.6
same,EC50,"B-CLL cells; human, 72 hours",0.22 ± 0.13 µM
same,EC50,[1],~20 µM
same,proliferation of Jurkat T-cells,Jurkat T-cells,significantly inhibited
same,"quantity of phosphorylated proteins (ERK, Akt, IκK, NFκB)","ERK, Akt, IκK and NFκB",significant reduction
